Values quoted from earlier work in patent EP3173421A1, “PEPTIDIC COMPOUNDS USEFUL AS ANTIBACTERIAL AGENTS” (Universitat de Barcelona, priority 2015, dated 2017).
Where a SMILES comes first, the peptide text is derived from it. Bridges are numbered along the chain shown (N, C = ends). Where no end group is shown, it is not given here. [ ]: non-standard residue; d: D form. The star is where a group is joined. ξ: configuration not given here. Thr(3ξ) = CC(O)[C@H](N)C(=O)O; Decanoyl = CCCCCCCCCC(=O)*; X1 = CC[C@H](C)CCCCC(=O)*; Nle = CCCC[C@H](N)C(=O)O; Dab = NCC[C@H](N)C(=O)O

Experiments:
[1] = after 6h; kidneys versus serum; cited from earlier work
Escherichia coli NDM-1 = conditions: E coli NDM-1; comparative examples, extracted from Rabanal et al. 2015; cited from earlier work
Escherichia coli VAL 5 = conditions: E coli VAL 5; comparative examples, extracted from Rabanal et al. 2015; cited from earlier work
[2] = tested on: Pseudomonas aeruginosa ATCC 9027; conditions: P. aeruginosa ATTC9027 (non-resistant); comparative examples, extracted from Rabanal et al. 2015; cited from earlier work
Escherichia coli VAL 10 = conditions: E coli VAL10; comparative examples, extracted from Rabanal et al. 2015; cited from earlier work
Escherichia coli MAC21a = conditions: E coli MAC21 a; comparative examples, extracted from Rabanal et al. 2015; cited from earlier work
[3] = tested on: Staphylococcus aureus ATTC6538; conditions: S. aureus ATTC6538; comparative examples, extracted from Rabanal et al. 2015; cited from earlier work
[4] = tested on: Escherichia coli ATCC 8739; conditions: E coli ATCC8739 (non-resistant); comparative examples, extracted from Rabanal et al. 2015; cited from earlier work
[5] = tested on: Pseudomonas aeruginosa 38a; conditions: P. aeruginosa 38a; comparative examples, extracted from Rabanal et al. 2015; cited from earlier work
[6] = tested on: Pseudomonas aeruginosa 36a; conditions: P. aeruginosa 36a; comparative examples, extracted from Rabanal et al. 2015; cited from earlier work

Compound	concentration in kidneys as multiple of the serum concentration [1]	MIC (Escherichia coli NDM-1) [µg/mL]	MIC (Escherichia coli VAL 5) [µg/mL]	MIC [2] [µg/mL]	MIC (Escherichia coli VAL 10) [µg/mL]	MIC (Escherichia coli MAC21a) [µg/mL]	MIC [3] [µg/mL]	MIC [4] [µg/mL]	MIC [5] [µg/mL]	MIC [6] [µg/mL]
CC[C@H](C)CCCCC(=O)N[C@@H](CCN)C(=O)N[C@H](C(=O)N[C@@H](CCN)C(=O)N[C@H]1CCNC(=O)[C@H](C(C)O)NC(=O)[C@H](CCN)NC(=O)[C@H](CCN)NC(=O)[C@H](CC(C)C)NC(=O)[C@@H](Cc2ccccc2)NC(=O)[C@H](CCN)NC1=O)C(C)O (stereo partly shown) [polymyxin B (8d), Polymyxin B] (X1-[Dab][Thr(3ξ)][Dab][Dab][Dab][dF]L[Dab][Dab][Thr(3ξ)]; lactam 4-C)	more than 30	–	–	–	–	–	–	–	–	–
Decanoyl-[Dab]T[Dab]C[Dab][dF][Nle][Dab][Dab][dC] (cysteine pairing not given here) [Comparative Example 8c]	–	0.5	0.5	1	0.5	0.5	4	2	0.5	–
polymyxin E (colistin) [polymyxin E (colistin) (8e)]	–	0.5	0.25	1	0.5	0.25	–	–	1	1
